In ChEMBL document CHEMBL5543151, “Rational Design of a Novel Class of Human ClpP Agonists through a Ring-Opening Strategy with Enhanced Antileukemia Activity” (J Med Chem, 2024):

Columns and labels:
[1] = Cmax in Sprague-Dawley rat at 15 mg/kg, po measured upto 12 hrs by LC-MS analysis; type: ADME, organism-based; settings: in vivo
[2] = Acute toxicity in BALB/c mouse assessed as ALB2 biochemical parameter at 25 to 100 mg/kg, ip measured for 2 weeks; type: organism-based; settings: in vivo, 336 h, dose 25-100 mg/kg
MV4-11 [3] = test: In vivo anti-leukemia activity against human MV4-11 cells transplanted in BALB/c nude mouse assessed as reduction in tumor weight at 5 mg/kg, ip twice weekly treatment started 7 th day of cell inoculum till 18 th day; type: functional; parameters: scale not given: the % may be the effect or the level left; settings: time 11 day
[4] = Acute toxicity in BALB/c mouse assessed as pathological changes in lung at 25 to 100 mg/kg, ip measured for 2 weeks by hematoxylin and eosin staining based assay; type: organism-based; settings: in vivo, 336 h, dose 25-100 mg/kg
MV4-11 [5] = test: In vivo anti-leukemia activity against human MV4-11 cells transplanted in BALB/c nude mouse assessed as reduction in tumor volume at 10 mg/kg, ip twice weekly treatment started 7 th day of cell inoculum till 18 th day; type: functional; parameters: scale not given: the % may be the effect or the level left; settings: time 11 day
[6] = Acute toxicity in BALB/c mouse assessed as CREJ2 biochemical parameter at 25 to 100 mg/kg, ip measured for 2 weeks; type: organism-based; settings: in vivo, 336 h, dose 25-100 mg/kg
MV4-11 [7] = test: In vivo anti-leukemia activity against human MV4-11 cells transplanted in BALB/c nude mouse assessed as reduction in tumor volume at 5 mg/kg, ip twice weekly treatment started 7 th day of cell inoculum till 18 th day; type: functional; parameters: scale not given: the % may be the effect or the level left; settings: time 11 day
[8] = Acute toxicity in BALB/c mouse assessed as UA2 biochemical parameter at 25 to 100 mg/kg, ip measured for 2 weeks; type: organism-based; settings: in vivo, 336 h, dose 25-100 mg/kg
MV4-11 [9] = test: In vivo anti-leukemia activity against human MV4-11 cells transplanted in BALB/c nude mouse assessed as reduction in tumor weight at 10 mg/kg, ip twice weekly treatment started 7 th day of cell inoculum till 18 th day; type: functional; parameters: scale not given: the % may be the effect or the level left; settings: time 11 day
[10] = Acute toxicity in BALB/c mouse assessed as ASTL biochemical parameter at 25 to 100 mg/kg, ip measured for 2 weeks; type: organism-based; settings: in vivo, 336 h, dose 25-100 mg/kg
[11] = Tmax in Sprague-Dawley rat at 15 mg/kg, po measured upto 12 hrs by LC-MS analysis; type: ADME, organism-based; settings: in vivo
[12] = MRT (0 to 12hrs) in Sprague-Dawley rat at 15 mg/kg, po measured upto 12 hrs by LC-MS analysis; type: ADME, organism-based; settings: in vivo
[13] = Acute toxicity in BALB/c mouse assessed as UREAL biochemical parameter at 25 to 100 mg/kg, ip measured for 2 weeks; type: organism-based; settings: in vivo, 336 h, dose 25-100 mg/kg
[14] = Acute toxicity in BALB/c mouse assessed as LDHI2 biochemical parameter at 25 to 100 mg/kg, ip measured for 2 weeks; type: organism-based; settings: in vivo, 336 h, dose 25-100 mg/kg
[15] = Cmax in Sprague-Dawley rat at 5 mg/kg, iv measured upto 12 hrs by LC-MS analysis; type: ADME, organism-based; settings: in vivo
[16] = Acute toxicity in BALB/c mouse assessed as adverse effect at 25 to 100 mg/kg, ip measured for 2 weeks; type: organism-based; settings: in vivo, 336 h, dose 25-100 mg/kg
[17] = Acute toxicity in BALB/c mouse assessed as pathological changes in spleen at 25 to 100 mg/kg, ip measured for 2 weeks by hematoxylin and eosin staining based assay; type: organism-based; settings: in vivo, 336 h, dose 25-100 mg/kg
[18] = Toxicity in BALB/c nude mouse transplanted with human MV4-11 cells assessed as pathological damage in heart at 2.5 to 10 mg/kg, ip measured for 17 days by hematoxylin and eosin staining based assay; type: organism-based; settings: in vivo, 408 h, dose 2.5-10 mg/kg, time 17 day
[19] = Half life in Sprague-Dawley rat at 15 mg/kg, po measured upto 12 hrs by LC-MS analysis; type: ADME, organism-based; settings: in vivo
[20] = Toxicity in BALB/c nude mouse transplanted with human MV4-11 cells assessed as pathological damage in lung at 2.5 to 10 mg/kg, ip measured for 17 days by hematoxylin and eosin staining based assay; type: organism-based; settings: in vivo, 408 h, dose 2.5-10 mg/kg, time 17 day
MV4-11 [21] = test: In vivo anti-leukemia activity against human MV4-11 cells transplanted in BALB/c nude mouse assessed as reduction in tumor weight at 2.5 mg/kg, ip twice weekly treatment started 7 th day of cell inoculum till 18 th day; type: functional; parameters: scale not given: the % may be the effect or the level left; settings: time 11 day
MV4-11 [22] = test: In vivo anti-leukemia activity against human MV4-11 cells transplanted in BALB/c nude mouse assessed as reduction in tumor volume at 2.5 mg/kg, ip twice weekly treatment started 7 th day of cell inoculum till 18 th day; type: functional; parameters: scale not given: the % may be the effect or the level left; settings: time 11 day
[23] = Half life in Sprague-Dawley rat at 5 mg/kg, iv measured upto 12 hrs by LC-MS analysis; type: ADME, organism-based; settings: in vivo
[24] = AUC(0 to 12hrs) in Sprague-Dawley rat at 15 mg/kg, po measured upto 12 hrs by LC-MS analysis; type: ADME, organism-based; settings: in vivo
[25] = Acute toxicity in BALB/c mouse assessed as ALTL biochemical parameter at 25 to 100 mg/kg, ip measured for 2 weeks; type: organism-based; settings: in vivo, 336 h, dose 25-100 mg/kg
[26] = Toxicity in BALB/c nude mouse transplanted with human MV4-11 cells assessed as change in body weight at 2.5 to 10 mg/kg, ip measured for 17 days; type: organism-based; settings: in vivo, 408 h, dose 2.5-10 mg/kg, time 17 day
[27] = Toxicity in BALB/c nude mouse transplanted with human MV4-11 cells assessed as pathological damage in kidney at 2.5 to 10 mg/kg, ip measured for 17 days by hematoxylin and eosin staining based assay; type: organism-based; settings: in vivo, 408 h, dose 2.5-10 mg/kg, time 17 day
[28] = Acute toxicity in BALB/c mouse assessed as pathological changes in liver at 25 to 100 mg/kg, ip measured for 2 weeks by hematoxylin and eosin staining based assay; type: organism-based; settings: in vivo, 336 h, dose 25-100 mg/kg
[29] = Bioavailability in Sprague-Dawley rat at 5 mg/kg, iv measured upto 12 hrs by LC-MS analysis; type: ADME, organism-based; settings: in vivo
[30] = Acute toxicity in BALB/c mouse assessed as vTP2 biochemical parameter at 25 to 100 mg/kg, ip measured for 2 weeks; type: organism-based; settings: in vivo, 336 h, dose 25-100 mg/kg
[31] = Acute toxicity in BALB/c mouse assessed as TRIGL biochemical parameter at 25 to 100 mg/kg, ip measured for 2 weeks; type: organism-based; settings: in vivo, 336 h, dose 25-100 mg/kg
[32] = Toxicity in BALB/c nude mouse transplanted with human MV4-11 cells assessed as pathological damage in spleen at 2.5 to 10 mg/kg, ip measured for 17 days by hematoxylin and eosin staining based assay; type: organism-based; settings: in vivo, 408 h, dose 2.5-10 mg/kg, time 17 day
[33] = Clearance in Sprague-Dawley rat at 5 mg/kg, iv measured upto 12 hrs by LC-MS analysis; type: ADME, organism-based; settings: in vivo
[34] = MRT (0 to 12hrs) in Sprague-Dawley rat at 5 mg/kg, iv measured upto 12 hrs by LC-MS analysis; type: ADME, organism-based; settings: in vivo
[35] = Acute toxicity in BALB/c mouse assessed as ALP2L biochemical parameter at 25 to 100 mg/kg, ip measured for 2 weeks; type: organism-based; settings: in vivo, 336 h, dose 25-100 mg/kg
[36] = Toxicity in BALB/c nude mouse transplanted with human MV4-11 cells assessed as pathological damage in liver at 2.5 to 10 mg/kg, ip measured for 17 days by hematoxylin and eosin staining based assay; type: organism-based; settings: in vivo, 408 h, dose 2.5-10 mg/kg, time 17 day
[37] = AUC(0 to 12hrs) in Sprague-Dawley rat at 5 mg/kg, iv measured upto 12 hrs by LC-MS analysis; type: ADME, organism-based; settings: in vivo
[38] = Acute toxicity in BALB/c mouse assessed as pathological changes in kidney at 25 to 100 mg/kg, ip measured for 2 weeks by hematoxylin and eosin staining based assay; type: organism-based; settings: in vivo, 336 h, dose 25-100 mg/kg
[39] = Acute toxicity in BALB/c mouse assessed as pathological changes in heart at 25 to 100 mg/kg, ip measured for 2 weeks by hematoxylin and eosin staining based assay; type: organism-based; settings: in vivo, 336 h, dose 25-100 mg/kg

SMILES: Cl.N#Cc1cccc(CN2CCc3[nH]c(NCc4ccc(F)cc4)nc(=O)c3C2)c1
- Cmax [1]: 332 ng/mL
- Activity [2]: Non-Toxic
- Activity (MV4-11 [3]): 67%
- Activity [4]: Non-Toxic
- Activity (MV4-11 [5]): 88.29%
- Activity [6]: Non-Toxic
- Activity (MV4-11 [7]): 75.3%
- Activity [8]: Non-Toxic
- Activity (MV4-11 [9]): 88.88%
- Activity [10]: Non-Toxic
- Tmax [11]: 1 h
- MRT last at 12 h [12]: 2.4 h
- Activity [13]: Non-Toxic
- Activity [14]: Non-Toxic
- Cmax [15]: 869 ng/mL
- Activity [16]: Non-Toxic
- Activity [17]: Non-Toxic
- Activity [18]: Non-Toxic
- half-life [19]: 3.9 h
- Activity [20]: Non-Toxic
- Activity (MV4-11 [21]): 20.35%
- Activity (MV4-11 [22]): 20.52%
- half-life [23]: 4.9 h
- AUC(0-t) at 12 h [24]: 780 ng·h/mL
- Activity [25]: Non-Toxic
- Activity [26]: Non-Toxic
- Activity [27]: Non-Toxic
- Activity [28]: Non-Toxic
- bioavailability [29]: 32.7%
- Activity [30]: Non-Toxic
- Activity [31]: Non-Toxic
- Activity [32]: Non-Toxic
- clearance [33]: 58.3 mL/min/kg
- MRT last at 12 h [34]: 2.8 h
- Activity [35]: Non-Toxic
- Activity [36]: Non-Toxic
- AUC(0-t) at 12 h [37]: 791 ng·h/mL
- Activity [38]: Non-Toxic
- Activity [39]: Non-Toxic
